The target of the assay is T1, EcPBP3 (Escherichia coli, UniProt P0AD68).
T1 construct: For assays, selections and SPR a construct with residues 60–588 which has the N-terminal domain, but not the transmembrane helix, was used; made in house
Description: SPR binding assay on immobilised EcPBP3. Conditions: for Kd: 37 °C, kinetic fitting, NB = no binding at 2500 nM (Tables S-4, S-5) or 5000 nM (Table 1), read-out: Kd (nM) by SPR (geomean); for Improvement in binding affinity: hydrophobic extension of Trp6, relative to parent peptide. How it is done: Surface plasmon resonance (SPR) assays were performed using EcPBP3 immobilized on CM5 sensor chips (GE Healthcare) via amine-coupling chemistry in assay buffer (10 mM HEPES pH 8.0, 200 mM NaCl, 0.05% (v/v) surfactant P20). The chip surface was activated by injection (10 μL min^–1) of 0.4 M EDC and 0.1 M NHS (in a 1:1 ratio) with a 7 min contact time. Protein was diluted to 25 μg mL^–1 in 10 mM MOPS (pH 7.0) and injected over the activated sensor chip surface to reach immobilization of 1500-2500 response units. Excess hydroxysuccinimidyl groups on the chip surface were deactivated by injection (10 μL min^–1) of 1 M ethanolamine hydrochloride pH 8.0 with a 7 min contact time. Reference flow cells were prepared as described, but without ligand (EcPBP3 protein).
Binding analysis runs were performed at 37 °C in running buffer (10 mM HEPES pH 8.0, 200 mM NaCl, 0.05% (w/v) Tween-20, 2% (v/v) DMSO). Test compounds (and control runs of buffer only) were injected in running buffer over the EcPBP3 chip and reference flow cell, at flow rate of 50 μL min^–1 for 150 s contact time and 2400 s dissociation time. Each injection was followed by a wash with 50% (v/v) DMSO. All compounds were tested in at least two independent biological replicates unless otherwise stated.
Raw sensorgrams data were solvent-corrected, reference-subtracted and blank-buffer-subtracted (double-referencing) before kinetic and affinity analysis to account for non-specific binding and injection artifacts. Equilibrium dissociation constant (Kd) values was determined using the Biacore™ Insight Evaluation Software (version 4.0.8 or version 5.0.17) using kinetic fitting. Kd values presented are the geometric mean of at least two biological replicates.
A general note: In SPR one partner is held on a chip, and binding of the other changes the refractive index at the surface.

Where a SMILES comes first, the peptide text is derived from it.

T1 sequence (P0AD68 60-588): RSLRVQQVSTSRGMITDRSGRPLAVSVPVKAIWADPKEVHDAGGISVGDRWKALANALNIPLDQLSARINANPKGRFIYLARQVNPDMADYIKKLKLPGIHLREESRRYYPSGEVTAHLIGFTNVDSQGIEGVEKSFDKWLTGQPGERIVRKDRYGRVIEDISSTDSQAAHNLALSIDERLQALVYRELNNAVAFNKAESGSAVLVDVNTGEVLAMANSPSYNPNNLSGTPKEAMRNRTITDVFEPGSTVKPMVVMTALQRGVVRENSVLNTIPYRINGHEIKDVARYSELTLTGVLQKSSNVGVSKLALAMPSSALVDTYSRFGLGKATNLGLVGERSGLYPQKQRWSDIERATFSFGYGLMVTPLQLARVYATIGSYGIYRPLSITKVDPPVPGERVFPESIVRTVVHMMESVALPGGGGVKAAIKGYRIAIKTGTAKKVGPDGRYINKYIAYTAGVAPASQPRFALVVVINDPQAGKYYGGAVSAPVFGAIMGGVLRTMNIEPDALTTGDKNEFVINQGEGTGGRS

Regarding `CC(C)[C@@H]1NC(=O)[C@H](Cc2c[nH]c3ccccc23)NC(=O)[C@@H]2CCCN2C(=O)[C@@H]2CSCCC(=O)N3CN(CN(C3)C(=O)CCSC[C@H](NC(=O)[C@H](C)N)C(=O)N[C@@H](CO)C(=O)N[C@@H](C)C(=O)N3CCC[C@H]3C(=O)N[C@@H](CCCCN)C(=O)N2)C(=O)CCSC[C@@H](C(=O)N[C@@H](C)C(N)=O)NC(=O)CNC(=O)[C@H](CCC(=O)O)NC1=O` [Peptide 17], the Kd is above 2500 nM.

As to `CC(C)[C@@H]1NC(=O)[C@H](Cc2c[nH]c3ccccc23)NC(=O)[C@H](C)NC(=O)[C@@H]2CSCCC(=O)N3CN(CN(C3)C(=O)CCSC[C@H](NC(=O)[C@H](C)N)C(=O)N[C@@H](CO)C(=O)N[C@@H](Cc3ccccc3)C(=O)N3CCC[C@H]3C(=O)N[C@@H](CCCCN)C(=O)N2)C(=O)CCSC[C@@H](C(=O)N[C@@H](C)C(N)=O)NC(=O)CNC(=O)[C@H](CCC(=O)O)NC1=O` [Peptide 20], the Kd worked out at 1380 nM.

Turning to `CC(C)[C@@H]1NC(=O)[C@H](Cc2c[nH]c3ccccc23)NC(=O)[C@@H]2CCCN2C(=O)[C@@H]2CSCCC(=O)N3CN(CN(C3)C(=O)CCSC[C@H](NC(=O)[C@H](C)N)C(=O)N[C@@H](CO)C(=O)N[C@@H](Cc3c(F)c(F)c(F)c(F)c3F)C(=O)N3CCC[C@H]3C(=O)N[C@@H](CCCCN)C(=O)N2)C(=O)CCSC[C@@H](C(=O)N[C@@H](C)C(N)=O)NC(=O)CNC(=O)[C@H](CCC(=O)O)NC1=O` [Peptide 54], the Kd is 701 nM. The same measure, in the same setting: as for `CC(C)[C@@H]1NC(=O)[C@H](Cc2c[nH]c3ccccc23)NC(=O)[C@@H]2CCCN2C(=O)[C@@H]2CSCCC(=O)N3CN(CN(C3)C(=O)CCSC[C@H](NC(=O)[C@H](C)N)C(=O)N[C@@H](CO)C(=O)N[C@@H](Cc3cccc(F)c3)C(=O)N3CCC[C@H]3C(=O)N[C@@H](CCCCN)C(=O)N2)C(=O)CCSC[C@@H](C(=O)N[C@@H](C)C(N)=O)NC(=O)CNC(=O)[C@H](CCC(=O)O)NC1=O` [Peptide 55], the figure is 16.8 nM; as for `CC(C)[C@@H]1NC(=O)[C@H](Cc2c[nH]c3ccccc23)NC(=O)[C@@H]2CCCN2C(=O)[C@@H]2CSCCC(=O)N3CN(CN(C3)C(=O)CCSC[C@H](NC(=O)[C@H](C)N)C(=O)N[C@@H](CO)C(=O)N[C@@H](Cc3ccccc3F)C(=O)N3CCC[C@H]3C(=O)N[C@@H](CCCCN)C(=O)N2)C(=O)CCSC[C@@H](C(=O)N[C@@H](C)C(N)=O)NC(=O)CNC(=O)[C@H](CCC(=O)O)NC1=O` [Peptide 56], 56.6 nM. Same read-out and setting: then `Cc1ccccc1C[C@@H]1NC(=O)[C@H](CO)NC(=O)[C@@H](NC(=O)[C@H](C)N)CSCCC(=O)N2CN3CN(C2)C(=O)CCSC[C@H](NC(=O)[C@H](CCCCN)NC(=O)[C@@H]2CCCN2C1=O)C(=O)N1CCC[C@H]1C(=O)N[C@@H](Cc1c[nH]c2ccccc12)C(=O)N[C@@H](C(C)C)C(=O)N[C@@H](CCC(=O)O)C(=O)NCC(=O)N[C@H](C(=O)N[C@@H](C)C(N)=O)CSCCC3=O` [Peptide 57], with 22.3 nM. On the same count and under the same terms, as for `Cc1ccc(C[C@@H]2NC(=O)[C@H](CO)NC(=O)[C@@H](NC(=O)[C@H](C)N)CSCCC(=O)N3CN4CN(C3)C(=O)CCSC[C@H](NC(=O)[C@H](CCCCN)NC(=O)[C@@H]3CCCN3C2=O)C(=O)N2CCC[C@H]2C(=O)N[C@@H](Cc2c[nH]c3ccccc23)C(=O)N[C@@H](C(C)C)C(=O)N[C@@H](CCC(=O)O)C(=O)NCC(=O)N[C@H](C(=O)N[C@@H](C)C(N)=O)CSCCC4=O)cc1` [Peptide 58], the figure is 5.06 nM. As for `CC(C)[C@@H]1NC(=O)[C@H](Cc2c[nH]c3ccccc23)NC(=O)[C@@H]2CCCN2C(=O)[C@@H]2CSCCC(=O)N3CN(CN(C3)C(=O)CCSC[C@H](NC(=O)[C@H](C)N)C(=O)N[C@@H](CO)C(=O)N[C@@H](Cc3ccncc3)C(=O)N3CCC[C@H]3C(=O)N[C@@H](CCCCN)C(=O)N2)C(=O)CCSC[C@@H](C(=O)N[C@@H](C)C(N)=O)NC(=O)CNC(=O)[C@H](CCC(=O)O)NC1=O` [Peptide 59] (HELM PEPTIDE1{A.C.S.[O=C([C@H](Cc1ccncc1)N[*:1])[*:2]].P.K.C.P.W.V.E.G.C.A.[am]}|CHEM1{[O=C(CC[*:1])N1CN(C(=O)CC[*:2])CN(C(=O)CC[*:3])C1]}$PEPTIDE1,CHEM1,2:R3-1:R1|PEPTIDE1,CHEM1,7:R3-1:R2|PEPTIDE1,CHEM1,13:R3-1:R3$$$V2.0), the Kd turned out to be 121 nM. Same read-out and setting: then `CC(C)[C@@H]1NC(=O)[C@H](Cc2c[nH]c3ccccc23)NC(=O)[C@@H]2CCCN2C(=O)[C@@H]2CSCCC(=O)N3CN(CN(C3)C(=O)CCSC[C@H](NC(=O)[C@H](C)N)C(=O)N[C@@H](CO)C(=O)N[C@@H](Cc3ccccn3)C(=O)N3CCC[C@H]3C(=O)N[C@@H](CCCCN)C(=O)N2)C(=O)CCSC[C@@H](C(=O)N[C@@H](C)C(N)=O)NC(=O)CNC(=O)[C@H](CCC(=O)O)NC1=O` [Peptide 60] (HELM PEPTIDE1{A.C.S.[O=C([C@H](Cc1ccccn1)N[*:1])[*:2]].P.K.C.P.W.V.E.G.C.A.[am]}|CHEM1{[O=C(CC[*:1])N1CN(C(=O)CC[*:2])CN(C(=O)CC[*:3])C1]}$PEPTIDE1,CHEM1,2:R3-1:R1|PEPTIDE1,CHEM1,7:R3-1:R2|PEPTIDE1,CHEM1,13:R3-1:R3$$$V2.0), with 122 nM; and `CC(C)[C@@H]1NC(=O)[C@H](Cc2c[nH]c3ccccc23)NC(=O)[C@@H]2CCCN2C(=O)[C@@H]2CSCCC(=O)N3CN(CN(C3)C(=O)CCSC[C@H](NC(=O)[C@H](C)N)C(=O)N[C@@H](CO)C(=O)N[C@@H](CCc3ccccc3)C(=O)N3CCC[C@H]3C(=O)N[C@@H](CCCCN)C(=O)N2)C(=O)CCSC[C@@H](C(=O)N[C@@H](C)C(N)=O)NC(=O)CNC(=O)[C@H](CCC(=O)O)NC1=O` [Peptide 61], with 232 nM.

In the case of `CC(C)[C@@H]1NC(=O)[C@H](Cc2cnc3ccccc3c2)NC(=O)[C@@H]2CCCN2C(=O)[C@@H]2CSCCC(=O)N3CN(CN(C3)C(=O)CCSC[C@H](NC(=O)[C@H](C)N)C(=O)N[C@@H](CO)C(=O)N[C@@H](Cc3ccccc3)C(=O)N3CCC[C@H]3C(=O)N[C@@H](CCCCN)C(=O)N2)C(=O)CCSC[C@@H](C(=O)N[C@@H](C)C(N)=O)NC(=O)CNC(=O)[C@H](CCC(=O)O)NC1=O` [Peptide 62], the Kd stood at 27 nM.

`COc1ccc2[nH]cc(C[C@@H]3NC(=O)[C@@H]4CCCN4C(=O)[C@@H]4CSCCC(=O)N5CN(CN(C5)C(=O)CCSC[C@H](NC(=O)[C@H](C)N)C(=O)N[C@@H](CO)C(=O)N[C@@H](Cc5ccccc5)C(=O)N5CCC[C@H]5C(=O)N[C@@H](CCCCN)C(=O)N4)C(=O)CCSC[C@@H](C(=O)N[C@@H](C)C(N)=O)NC(=O)CNC(=O)[C@H](CCC(=O)O)NC(=O)[C@H](C(C)C)NC3=O)c2c1` [Peptide 63]: the Kd turned out to be 175 nM. In the case of `CC(C)[C@@H]1NC(=O)[C@H](Cc2c[nH]c3cc(Cl)ccc23)NC(=O)[C@@H]2CCCN2C(=O)[C@@H]2CSCCC(=O)N3CN(CN(C3)C(=O)CCSC[C@H](NC(=O)[C@H](C)N)C(=O)N[C@@H](CO)C(=O)N[C@@H](Cc3ccccc3)C(=O)N3CCC[C@H]3C(=O)N[C@@H](CCCCN)C(=O)N2)C(=O)CCSC[C@@H](C(=O)N[C@@H](C)C(N)=O)NC(=O)CNC(=O)[C@H](CCC(=O)O)NC1=O` [Peptide 65], the Kd is 0.269 nM and the “Improvement in binding affinity” value was “More than 10 fold”. Take `CC(C)[C@@H]1NC(=O)[C@H](Cc2c[nH]c3cc(F)ccc23)NC(=O)[C@@H]2CCCN2C(=O)[C@@H]2CSCCC(=O)N3CN(CN(C3)C(=O)CCSC[C@H](NC(=O)[C@H](C)N)C(=O)N[C@@H](CO)C(=O)N[C@@H](Cc3ccccc3)C(=O)N3CCC[C@H]3C(=O)N[C@@H](CCCCN)C(=O)N2)C(=O)CCSC[C@@H](C(=O)N[C@@H](C)C(N)=O)NC(=O)CNC(=O)[C@H](CCC(=O)O)NC1=O` [Peptide 66]: the Kd was found to be 0.489 nM and the “Improvement in binding affinity” value is “More than 10 fold”. Take `C[C@H](N)C(=O)N[C@H]1CSCCC(=O)N2CN3CN(C2)C(=O)CCSC[C@H](NC(=O)[C@H](CCCCN)NC(=O)[C@@H]2CCCN2C(=O)[C@H](Cc2ccccc2)NC(=O)[C@H](CO)NC1=O)C(=O)N1CCC[C@H]1C(=O)N[C@@H](Cc1c[nH]c2ccccc12)C(=O)N[C@@H](C(C)(C)C)C(=O)N[C@@H](CCC(=O)O)C(=O)NCC(=O)N[C@H](C(=O)N[C@@H](C)C(N)=O)CSCCC3=O` [Peptide 67] (HELM PEPTIDE1{A.C.S.F.P.K.C.P.W.[CC(C)(C)[C@H](N[*:1])C(=O)[*:2]].E.G.C.A.[am]}|CHEM1{[O=C(CC[*:1])N1CN(C(=O)CC[*:2])CN(C(=O)CC[*:3])C1]}$PEPTIDE1,CHEM1,2:R3-1:R1|PEPTIDE1,CHEM1,7:R3-1:R2|PEPTIDE1,CHEM1,13:R3-1:R3$$$V2.0): the Kd was 574 nM.

Usually Kd stands for the free concentration of one partner at which half of the binding sites on the other are occupied at equilibrium, for simple one-to-one binding.

Source of the values: paper PMC12120022, “Discovery and chemical optimisation of a potent, Bi-cyclic antimicrobial inhibitor of Escherichia coli PBP3” (Communications Biology, 2025).
